This is an account of results in BindingDB's records for patent US20230322767 (Bayer Aktiengesellschaft, 2023).

The target of test [1] is T1, Casein kinase I isoform alpha (Homo sapiens, UniProt P48729). In words: CSNK1A1 1uM ATP Assay. As for the experimental part:
The concentration of CSNK1A1 was adjusted depending of the activity of the enzyme lot and was chosen appropriate to have the assay in the linear range, a typical concentration is about 0.4 ng/μL. The reaction was stopped by the addition of 2.5 μL of ADP-Glo-reagent (1:1.5 fold diluted with water) and the resulting mixture was incubated at 22° C. for 1 h to convert the ATP not consumed in the kinase reaction completely to […]. […] The amount of emitted light was taken as a measure for the amount of ADP generated and thereby for the activity of the CSNK1A1.

Test [2] deals with Casein kinase I isoform delta (Homo sapiens, UniProt P48730). The test can be described thus: CSNK1D Assay. As for the experimental part:
As substrate for the kinase reaction the biotinylated peptide Btn-Ahx-[…] […] The concentration of CSNK1D was adjusted depending of the activity of the enzyme lot and was chosen appropriate to have the assay in the linear range, a typical concentration is about 0.5 ng/μL. The reaction was stopped by the addition of 2.5 μL of “ADP-Glo-reagent” (1:1.5 fold diluted with water) and the resulting mixture was incubated at 22° C. for 1 h to convert the ATP not consumed in the kinase reaction completely to […]. […] The amount of emitted light was taken as a measure for the amount of ADP generated and thereby for the activity of the CSNK1D.

Test [3] concerns the target Epidermal growth factor receptor (Homo sapiens, UniProt P00533). In words: WT-EGFR Kinase Assay. As for the experimental part:
For the assay 50 nl of a 100 fold concentrated solution of the test compound in DMSO was pipetted into either a black low volume 384 well microtiter plate or a black 1536 well microtiter plate (both Greiner Bio-One, Frickenhausen, Germany), 2 μL of a solution of EGFR in aqueous assay buffer [50 mM Hepes pH 7.0, 10 mM MgCl2, 1 mM dithiothreitol, 0.5 mM EGTA, 0.3 mM activated sodium ortho-vanadate, 0.005% (w/v) bovine serum albumin, 0.005% (v/v) Tween-20] were added and the mixture was incubated for 15 min at 22° C. to allow pre-binding of the test compounds to the enzyme before the start of the kinase reaction. […] The concentration of EGFR was adjusted depending of the activity of the enzyme lot and was chosen appropriate to have the assay in the linear range, typical concentration was […]. The reaction was stopped by the addition of 3 μL of a solution of HTRF detection reagents (83.3 nM streptavidine-XL665 [Cisbio Bioassays, Codolet, France] and 1.67 nM PT66-Tb-Cryptate, a terbium-cryptate labelled anti-phospho-tyrosine antibody from Cisbio Bioassays [instead of the PT66-Tb-cryptate PT66-Eu-Chelate from Perkin Elmer can also be used]) in an aqueous EDTA-solution (133.3 mM EDTA, 0.2% (w/v) bovine serum albumin in 50 mM HEPES pH 7.5).

Test [4] concerns the target T1, Casein kinase I isoform alpha. In words: CSNK1A1 High ATP Assay. An excerpt: Recombinant fusion protein of N-terminal Glutathion-S-Transferase (GST) and full-length human CSNK1A1, expressed by baculovirus infected insect cells and purified via Glutathion affinity chromatography, was purchased from Life Technologies (product no. PV4174) and used as enzyme. As substrate for the kinase reaction the biotinylated peptide biotin-Ahx-KRRRAL-pS-VASLPGL (C-terminus in amide form) was used which can be purchased e.g. from the company Biosyntan (Berlin-Buch, Germany).[2164]For the assay 50 nl of a 100 fold concentrated solution of the test compound in DMSO was pipetted into a white low volume 384-well microtiter plate (Greiner Bio-One, Frickenhausen, Germany), 2 μL of a solution of CSNK1A1 in aqueous assay buffer [50 mM HEPES pH 7.5, 10% (v/v) glycerol, 10 mM MgCl2, 50 mM NaCl, 1 mM dithiothreitol, 0.01% (w/v) bovine serum albumin, 0.01% (v/v) Triton X-100] were added and the mixture was incubated for 15 min at 22° C. to allow pre-binding of the test compounds to the enzyme before the start of the kinase reaction. […] The concentration of CSNK1A1 was adjusted depending of the activity of the enzyme lot and was chosen appropriate to have the assay in the linear range, a typical concentration is about 0.4 ng/μL. The reaction was stopped by the addition of 2.5 μL of ADP-Glo-reagent (1:1.5 fold diluted with water) and the resulting mixture was incubated at 22° C. for 1 h to convert the ATP not consumed in the kinase reaction completely […]. Subsequently 2.5 μL of the kinase detection reagent (1.2 fold more concentrated than recommended by the producer) were added, the resulting mixture was incubated at 22° C. for 1 h and then the luminescence measured with a suitable measurement instrument (e.g. Viewlux™ from Perkin-Elmer). The amount of emitted light was taken as a measure for the amount of ADP generated and thereby for the activity of the CSNK1A1.

T1 sequence (P48729 whole entry, canonical isoform): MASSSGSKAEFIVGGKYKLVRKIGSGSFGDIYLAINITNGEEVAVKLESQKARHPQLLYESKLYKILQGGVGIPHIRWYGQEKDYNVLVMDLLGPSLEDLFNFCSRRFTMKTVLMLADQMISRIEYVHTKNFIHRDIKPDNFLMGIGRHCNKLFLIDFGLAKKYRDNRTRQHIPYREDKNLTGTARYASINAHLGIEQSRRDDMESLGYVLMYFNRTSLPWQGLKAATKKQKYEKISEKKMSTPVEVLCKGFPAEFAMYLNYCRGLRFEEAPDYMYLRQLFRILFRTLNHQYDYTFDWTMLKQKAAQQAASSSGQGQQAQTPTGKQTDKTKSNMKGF
Epidermal growth factor receptor, sequence (P00533 whole entry): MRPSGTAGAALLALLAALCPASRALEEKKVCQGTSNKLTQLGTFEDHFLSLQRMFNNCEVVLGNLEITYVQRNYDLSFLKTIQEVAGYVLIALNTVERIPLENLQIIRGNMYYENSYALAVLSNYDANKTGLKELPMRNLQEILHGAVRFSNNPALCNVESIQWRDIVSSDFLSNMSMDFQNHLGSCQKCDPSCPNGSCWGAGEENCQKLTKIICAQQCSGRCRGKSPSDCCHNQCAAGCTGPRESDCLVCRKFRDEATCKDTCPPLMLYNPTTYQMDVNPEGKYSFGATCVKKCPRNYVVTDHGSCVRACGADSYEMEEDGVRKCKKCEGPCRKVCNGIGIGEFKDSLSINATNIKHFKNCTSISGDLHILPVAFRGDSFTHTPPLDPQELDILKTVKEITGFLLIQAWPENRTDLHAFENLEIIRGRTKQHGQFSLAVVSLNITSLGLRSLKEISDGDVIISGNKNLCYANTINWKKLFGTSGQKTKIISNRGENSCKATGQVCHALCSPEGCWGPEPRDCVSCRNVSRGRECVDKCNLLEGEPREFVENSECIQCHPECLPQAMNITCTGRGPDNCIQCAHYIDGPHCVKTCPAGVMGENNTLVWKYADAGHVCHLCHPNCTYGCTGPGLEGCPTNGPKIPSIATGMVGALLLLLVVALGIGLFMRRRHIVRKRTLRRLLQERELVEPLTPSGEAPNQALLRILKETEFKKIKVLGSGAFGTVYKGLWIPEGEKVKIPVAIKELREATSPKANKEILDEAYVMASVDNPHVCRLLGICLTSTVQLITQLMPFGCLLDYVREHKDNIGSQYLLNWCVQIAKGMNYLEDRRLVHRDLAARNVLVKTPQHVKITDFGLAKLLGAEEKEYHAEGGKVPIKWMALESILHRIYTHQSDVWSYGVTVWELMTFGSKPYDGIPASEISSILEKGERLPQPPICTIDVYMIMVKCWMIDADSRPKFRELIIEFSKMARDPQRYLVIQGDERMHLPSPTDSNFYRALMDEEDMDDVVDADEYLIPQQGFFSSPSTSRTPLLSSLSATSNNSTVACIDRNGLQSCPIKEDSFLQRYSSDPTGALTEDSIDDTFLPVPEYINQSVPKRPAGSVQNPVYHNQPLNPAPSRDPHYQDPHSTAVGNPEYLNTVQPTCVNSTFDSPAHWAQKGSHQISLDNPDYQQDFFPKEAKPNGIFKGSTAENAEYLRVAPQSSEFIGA
Casein kinase I isoform delta, sequence (P48730 whole entry, canonical isoform): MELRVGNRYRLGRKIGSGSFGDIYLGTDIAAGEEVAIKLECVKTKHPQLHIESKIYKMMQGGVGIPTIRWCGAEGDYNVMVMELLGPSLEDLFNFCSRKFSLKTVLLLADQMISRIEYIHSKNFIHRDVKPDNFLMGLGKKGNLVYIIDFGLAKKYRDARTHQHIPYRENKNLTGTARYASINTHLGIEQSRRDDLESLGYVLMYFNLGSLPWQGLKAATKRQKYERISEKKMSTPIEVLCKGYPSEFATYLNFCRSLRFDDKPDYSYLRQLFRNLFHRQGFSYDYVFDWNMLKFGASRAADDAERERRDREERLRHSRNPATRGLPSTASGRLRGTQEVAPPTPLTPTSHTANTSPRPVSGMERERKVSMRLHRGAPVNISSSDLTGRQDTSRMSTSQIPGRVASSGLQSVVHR

What is called IC50 is the point on the concentration scale where inhibition reaches its midpoint. `Cn1ccc2[nH]c(-c3ccnc(NC(=O)Cc4ccc(F)cc4)c3)c(-c3ccccc3)c2c1=O` [US20230322767, Example 5]: the results for the IC50 in test [1], in test [2] and in test [3] were 0.86 nM, 2.5 nM and above 20000 nM, respectively.

On to `CN1CCc2[nH]c(-c3ccnc(NC(=O)[C@H]4C[C@H]4F)c3)c(Nc3ccccc3)c2C1=O` (relative stereo; form 1) [US20230322767, Example No. 40 WO 2016/120196], for which the results for the IC50 in test [3] and in test [4] were 85.5 nM and 24.1 nM, respectively.

On to `O=c1[nH]ccc2[nH]c(-c3ccncc3F)c(Nc3ccccc3)c12` [US20230322767, Example No. 16 WO 2016/120196], for which the IC50 came to 303 nM in test [3] and 40.3 nM in test [4].

As for `CN1CCc2[nH]c(-c3ccnc(NC(=O)[C@H]4C[C@H]4F)c3)c(Nc3ccccc3)c2C1=O` (relative stereo; form 2) [US20230322767, Example No. 25 WO 2016/120196], the IC50 in test [3] was 321 nM; in test [4] it was 62.5 nM.

Turning to `CN1CCc2[nH]c(-c3ccnc(NC(=O)C4CC4)c3)c(Nc3ccccc3)c2C1=O`, the results for the concentration for half-maximal inhibition (IC50) in test [3] and in test [4] were 42.6 nM and below 3.43 nM, respectively.
